IC50 data for two compounds are collected here from ChEMBL document CHEMBL1146660 (Bioorg Med Chem Lett, 2004).

Test [1] addresses T1, M-phase inducer phosphatase 2 (Homo sapiens, UniProt P30305).
T1 sequence (P30305 whole entry): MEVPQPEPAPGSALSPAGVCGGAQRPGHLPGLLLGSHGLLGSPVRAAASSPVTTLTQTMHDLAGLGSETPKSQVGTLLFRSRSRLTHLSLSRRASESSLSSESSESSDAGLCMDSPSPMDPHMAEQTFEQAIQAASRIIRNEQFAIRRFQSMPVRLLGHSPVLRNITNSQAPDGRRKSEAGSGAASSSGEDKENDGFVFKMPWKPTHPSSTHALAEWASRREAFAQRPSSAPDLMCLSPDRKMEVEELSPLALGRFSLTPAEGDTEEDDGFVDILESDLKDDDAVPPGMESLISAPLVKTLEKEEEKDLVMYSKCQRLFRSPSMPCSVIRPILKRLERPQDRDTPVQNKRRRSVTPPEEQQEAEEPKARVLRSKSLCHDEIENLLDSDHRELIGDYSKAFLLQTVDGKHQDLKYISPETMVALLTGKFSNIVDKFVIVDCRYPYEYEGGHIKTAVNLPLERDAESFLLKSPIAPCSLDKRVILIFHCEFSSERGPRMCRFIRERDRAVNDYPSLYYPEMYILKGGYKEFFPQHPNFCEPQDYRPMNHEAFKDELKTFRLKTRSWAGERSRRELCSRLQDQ
The experiment in a line: Concentration required to inhibit human Cell division cycle 25B activity.

The target in test [2] is T2, M-phase inducer phosphatase 1 (Homo sapiens, UniProt P30304).
T2 sequence (P30304 whole entry): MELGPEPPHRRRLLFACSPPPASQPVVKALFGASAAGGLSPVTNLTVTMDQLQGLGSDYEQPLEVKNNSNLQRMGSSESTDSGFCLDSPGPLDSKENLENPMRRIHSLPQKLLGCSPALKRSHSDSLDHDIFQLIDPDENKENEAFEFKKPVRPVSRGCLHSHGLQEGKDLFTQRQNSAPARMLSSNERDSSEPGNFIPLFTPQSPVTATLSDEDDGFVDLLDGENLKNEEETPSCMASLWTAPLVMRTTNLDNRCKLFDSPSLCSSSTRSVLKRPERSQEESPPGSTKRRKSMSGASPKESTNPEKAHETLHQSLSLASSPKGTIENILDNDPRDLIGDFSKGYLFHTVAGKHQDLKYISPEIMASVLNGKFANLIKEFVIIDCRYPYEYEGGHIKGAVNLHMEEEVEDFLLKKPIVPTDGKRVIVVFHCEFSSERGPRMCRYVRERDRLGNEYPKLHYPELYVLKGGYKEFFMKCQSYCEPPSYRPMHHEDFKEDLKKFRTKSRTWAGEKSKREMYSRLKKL
The experiment in a line: Concentration required to inhibit human Cell division cycle 25A activity.

Test [3] addresses T2, M-phase inducer phosphatase 1. The experiment in a line: Concentration required to inhibit human Cell division cycle 25A activity; Value ranges from […] to […].

By IC50 is commonly meant the concentration needed to halve the response being measured. A higher IC50 goes with a need for much substance. `CC(C)CCC[C@@H](C)[C@H]1CCC2/C(=C/C(=O)O)CCC[C@@]21C` (stereo partly drawn): the IC50 in test [1] is 8 µM; in test [2], 5.5 µM. In test [3], `C=C1CC[C@H](O)C/C1=C/C=C1\CCC[C@@]2(C)C1CC[C@@H]2[C@H](C)CCCC(C)C` (stereo partly drawn) had an IC50 of 0.89 µM.
